The source of these data is patent US8404839B2, “Crystalline 4-(3-chloro-2-fluoroanilino)-7 methoxy-6-{[1-(N-methylcarbamoylmethyl)piperidin-4-yl]oxy} quinazoline difumarate Form A” (Astrazeneca AB, priority 2008, dated 2013).

In brackets after ≈: the same amount, converted by molar mass. Where two headings read alike, the source gives them in different places. Some results are limits rather than exact numbers.

Series [1] can be described thus: Intrinsic dissolution rate in aqueous buffers. It counts as physicochemical. The following applies: for Intrinsic Dissolution Rate: 37° C. The protocol:
(x) intrinsic dissolution rate was measured in a dissolution bath coupled to a fibre optic uv detector.

A further series in a line: Dynamic vapour sorption. The following applies: for hygroscopicity (in words): Dynamic Vapour Sorption. It counts as physicochemical. The protocol:
(ix) dynamic vapour sorption was measured using a SMS DVS (Surface Measurement Systems Limited, UK). Samples were analysed at 25° C. using a gas flow of 200 cubic centimeters per minute. The relative humidity (RH) was increased from 0% RH in steps of 10% RH to 80% RH with the final step of 95% RH. The sample was then desorbed using the same RH step pattern as the sorption; this procedure was then repeated in a second sorption/desorption cycle. Equilibration at each humidity step is set such that the rate of change of weight with time (minute) was 0.002%.

Series [2] in a line: In vitro dissolution of direct compression tablets. It counts as physicochemical. As to conditions: pH 4.5 citrate buffer, 100 mg free base equivalents. The protocol: The performance of the solid dosage forms was evaluated in vitro prior to the in-vivo dog study commencing.
Series [3] is described as follows: Pharmacokinetic study in dogs. As to conditions: dog, n = 4, mean ± SE; for AUC(0-t): read-out: AUC(0-48). The series is classed as in vivo, Male Beagle Dogs.
A short description of series [4]: Aqueous solubility (HPLC UV). As to conditions: for solubility at 48 h: thermodynamic from solid, 25° C. The series is classed as physicochemical. The protocol: (xi) solubility in water was measured using HPLC UV.
The intrinsic dissolution rates of Compound (I) difumarate Form A and Compound (I) was also been measured in a range of aqueous buffers.

In series [5] the test system is MCF-7 cells. As to the kind of experiment: HRG-stimulated MCF-7 cell proliferation assay (MTS). It counts as cell-based. The following applies: Homo sapiens, MCF7, 96 h, 10 ng/ml HRG, 4 days, basal growth subtracted, read-out: HRG-stimulated proliferation Geo Mean IC50.
Series [6] concerns MCF-7 cells. As to the kind of experiment: Basal MCF-7 cell proliferation assay (MTS). The following applies: Homo sapiens, MCF7, 96 h, unstimulated, 4 days, read-out: Basal proliferation Geo Mean GI50. The series is classed as cell-based. As for the experimental part: MCF-7 cells were routinely cultured in DMEM (Phenol red free)+10% Foetal Bovine Serum+2 mM L-Glutamine. […] Basal wells were unstimulated with ligand. After incubation for 4 days, cell viability was assessed using a 3-(4,5-dimethylthiazol-2-yl)-5-(3-carboxymethoxyphenyl)-2-(4-sulfophenyl)-2H-tetrazolium (MTS) assay. Prior to IC50 determination of HRG-stimulated compound-treated cells, mean basal growth at 96 hours was subtracted from each of the readouts so that proliferation driven through HRG-signalling was assessed. Basal IC50 values are expressed as GI50 i.e. the day 0 plate cell number (baseline reading) was subtracted from the readout at 96 hours later.

For a further series, the target named is ErbB2 (Homo sapiens, UniProt P04626). As to the kind of experiment: p-ErbB2 ELISA in HRG-stimulated MCF-7 cells. It counts as cell-based. The following applies: 90 minutes treatment, bracket = confidence interval ratio, read-out: p-ErbB2 Geo Mean IC50 (95% CIR).
In a further series the test system is ErbB3. Briefly: p-ErbB3 ELISA in HRG-stimulated MCF-7 cells. As to conditions: 90 minutes treatment, bracket = confidence interval ratio, read-out: p-ErbB3 Geo Mean IC50 (95% CIR). The series is classed as cell-based, Human. As for the experimental part:
KB cells and MCF-7 cells were obtained from the American Type Culture Collection (ATCC) and routinely cultured in RPMI 1640 (Phenol red free)+10% Foetal Bovine Serum+2 mM L-Glutamine. KB cells were seeded at 5000 cells/well and MCF-7 cells at 4000 cells/well in 96 well plates in RPMI 1640 media containing 10% FBS. Cells were incubated for 72 hours before replacing the media with serum-free RPMI 1640 media for 24 hours. […] Immediately before cell lysis, MCF-7 and KB cells were incubated for 5 minutes with ligand (heregulin (“HRG”) for the MCF-7 cells and epidermal growth factor (“EGF”) for the KB cells) at concentrations required to increase receptor phosphorylation to 90% of max (ED90) to allow inter-assay comparison. The p-EGFR status of KB cells was measured using the Human phospho-EGFR Duoset ELISA kit (R&D systems total EGFR #DYC1854, pEGFR #DYC1095). The p-ErbB2 and p-ErbB3 content of MCF-7 cells were measured using the Human phospho-ErbB2 Duoset ELISA kit (R&D systems, DYC1768) and Human phospho-ErbB3 Duoset ELISA kit (R&D systems, DYC1769) respectively. The kits measured whole cell tyrosine phosphorylation of EGFR, ErbB2 or ErbB3. Assays were performed according to the manufacturers instructions, with 50 μl lysate added per well.

Series [7] is described as follows: Cellular permeability / BCS classification. It counts as in vitro ADME.
Setting [8] is: oral direct compressed tablet, 100 mg free form equivalent.
[9] abbreviates: oral direct compressed tablet, 100 mg free form equivalent, versus IV 20 mg.
Setting [10] is: male, beagle, plasma, oral direct compressed tablet, 100 mg free form equivalent.

Chain of ErbB2 (P04626 23-1255): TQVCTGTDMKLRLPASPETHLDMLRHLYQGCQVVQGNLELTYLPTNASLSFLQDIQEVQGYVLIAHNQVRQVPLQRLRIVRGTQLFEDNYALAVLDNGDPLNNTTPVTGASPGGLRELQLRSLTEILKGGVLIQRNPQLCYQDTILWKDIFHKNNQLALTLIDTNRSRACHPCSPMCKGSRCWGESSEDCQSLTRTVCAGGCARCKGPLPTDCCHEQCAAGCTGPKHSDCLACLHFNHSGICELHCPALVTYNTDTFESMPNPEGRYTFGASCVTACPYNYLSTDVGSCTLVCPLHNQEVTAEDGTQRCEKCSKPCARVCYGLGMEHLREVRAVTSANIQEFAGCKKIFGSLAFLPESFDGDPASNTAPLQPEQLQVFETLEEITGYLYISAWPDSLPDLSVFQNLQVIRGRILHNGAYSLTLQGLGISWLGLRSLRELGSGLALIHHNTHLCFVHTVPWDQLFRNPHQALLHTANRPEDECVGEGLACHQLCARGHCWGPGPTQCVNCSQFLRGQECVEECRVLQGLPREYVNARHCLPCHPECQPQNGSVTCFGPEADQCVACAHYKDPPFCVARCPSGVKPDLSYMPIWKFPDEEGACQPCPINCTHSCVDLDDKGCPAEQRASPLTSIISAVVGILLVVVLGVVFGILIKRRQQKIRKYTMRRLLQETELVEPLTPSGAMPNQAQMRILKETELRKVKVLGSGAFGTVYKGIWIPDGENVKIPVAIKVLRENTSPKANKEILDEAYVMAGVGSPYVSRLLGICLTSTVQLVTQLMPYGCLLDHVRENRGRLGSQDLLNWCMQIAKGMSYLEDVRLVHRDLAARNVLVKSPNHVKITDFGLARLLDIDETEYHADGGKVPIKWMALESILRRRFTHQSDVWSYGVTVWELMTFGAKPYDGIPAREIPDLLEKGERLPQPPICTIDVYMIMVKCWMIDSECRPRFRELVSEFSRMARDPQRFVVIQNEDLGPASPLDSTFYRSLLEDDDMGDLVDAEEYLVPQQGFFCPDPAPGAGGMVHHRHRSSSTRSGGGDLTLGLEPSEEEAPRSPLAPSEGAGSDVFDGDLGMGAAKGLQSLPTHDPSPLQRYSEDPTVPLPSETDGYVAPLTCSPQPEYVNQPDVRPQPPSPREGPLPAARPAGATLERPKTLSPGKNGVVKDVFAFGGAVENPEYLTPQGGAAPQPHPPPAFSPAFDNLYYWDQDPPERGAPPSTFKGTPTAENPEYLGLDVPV

With `CNC(=O)CN1CCC(Oc2cc3c(Nc4cccc(Cl)c4F)ncnc3cc2OC)CC1.O=C(O)/C=C/C(=O)O.O=C(O)/C=C/C(=O)O` [Compound (I) difumarate Form A, 2-[4-({4-[(3-Chloro-2-fluorophenyl)amino]-7-methoxyquinazolin-6-yl}oxy)piperidin-1-yl]-N-methylacetamide di-[(2E)-but-2-enedioate] Form A], the “Intrinsic Dissolution Rate” value in [1] (SGF (Simulated Gastric Fluid)) was 15.9 mgmin^−1cm^−2. For the same compound, the “Intrinsic Dissolution Rate” value in [1] (pH 6.5 phosphate buffer) is 2.51 mgmin^−1cm^−2. In addition, the “hygroscopicity (in words)” value in “Dynamic vapour sorption” is reported as “non-hygroscopic”. Besides, the “moisture absorbed (Dynamic Vapour Sorption)” value in “Dynamic vapour sorption” (up to 95% relative humidity, 25° C.) is reported as under 0.5%. Further, in [2], the “% Dissolution at 45 minutes” value is recorded as 100.3%. Also, in series [3] (setting [8]), the “AUC(0-48)” value came out at 190.3 ± 46.9 µM·h, the Cmax is 32.6 ± 3.6 µM, the Tmax worked out at 1.1 ± 0.3 h and the half-life is given as 16.9 ± 4.0 h. The “Bioavailability(0-48 h)” value in series [3] (setting [9]) worked out at 113%. In series [3] (oral direct compressed tablet, 100 mg free form equivalent, versus IV 20 mg, listed as Difumarate Form A), the “Bioavailability(0-48 h)” value came out at 112.5 ± 8.1%. The solubility in water in [4] (pH 3.5) is 22500 µg/mL.
For the compound `CNC(=O)CN1CCC(Oc2cc3c(Nc4cccc(Cl)c4F)ncnc3cc2OC)CC1` [Compound (I), 4-(3-chloro-2-fluoroanilino)-7-methoxy-6-{[1-(N-methylcarbamoylmethyl)piperidin-4-yl]oxy}quinazoline], the results for the IC50 in the series with MCF-7 cells [5], at ErbB2 and in the series on ErbB3 were 61 nM, 3 nM and 4 nM, respectively. In addition, the “Intrinsic Dissolution Rate” value is 19.2 mgmin^−1cm^−2 in [1] (SGF (Simulated Gastric Fluid)) and 0.01 mgmin^−1cm^−2 in [1] (pH 6.5 phosphate buffer). Besides, the “intrinsic dissolution rate (in words)” value in series [1] (particularly at pH below 6.0) was “relatively low”. The GI50 in the series with MCF-7 cells [6] worked out at 1090 nM. The “hygroscopicity (in words)” value in the series “Dynamic vapour sorption” is “moderately hygroscopic”. Moreover, in “Dynamic vapour sorption” (at 80% relative humidity, 25° C.), the “moisture uptake (Dynamic Vapour Sorption)” value is “approximately 1.9 % w/w”. Also, the “% Dissolution at 45 minutes” value in series [2] is 93.6%. Also, the “cellular permeability (in words)” value in series [7] is given as “high”. Moreover, the BCS classification entry in series [7] (suggested by low solubility and high permeability) was “Class II”. Moreover, the “Bioavailability(0-48 h)” value in series [3] (setting [9]) was determined as 63.5 ± 7.0%. Further, in series [3] (male, beagle, plasma, oral, 100 mg, oral direct compressed tablet, 100 mg free form equivalent, versus IV 20 mg, read-out: Bioavailability(0-48 h)), the bioavailability came to 64%. Also, the Cmax in series [3] (male, beagle, plasma, IV 20 mg) stood at 9 ± 1.1 µM; in series [3] (setting [10]), 14 ± 1.7 µM. In addition, the AUC(0-t) came to 33.4 ± 7.7 µM·h in series [3] (male, beagle, plasma, IV 20 mg) and 104 ± 25.3 µM·h in [3] (setting [10]). The clearance in series [3] (male, beagle, plasma, IV 20 mg, read-out: Cl (Clearance)) came out at 1.9 ± 0.5 mL/min/kg. Further, the half-life in series [3] (male, beagle, plasma, IV 20 mg, read-out: Half-life (converted)) was 5.3 ± 0.2 h; in series [3] (male, beagle, plasma, oral direct compressed tablet, 100 mg free form equivalent, read-out: Half-life (converted)), 8.2 ± 0.6 h. The Tmax in series [3] (male, beagle, plasma, IV 20 mg, read-out: Tmax) is 0.2 h; in series [3] (male, beagle, plasma, oral direct compressed tablet, 100 mg free form equivalent, read-out: Tmax), 1.6 ± 0.8 h. Further, the Vd in [3] (male, beagle, plasma, IV 20 mg, read-out: Vss (Volume of distribution at steady state)) is 0.6 ± 0.1 L/kg. Also, the solubility at 48 h was 27200 µg/mL (≈ 57400 µM) in series [4] (aqueous buffer, pH 2.7, 48 hours, read-out: solubility in aqueous buffer); 1 µg/mL (≈ 2.11 µM) in series [4] (aqueous buffer, pH 7.9, 48 hours, read-out: solubility in aqueous buffer); 1 µg/mL (≈ 2.11 µM) in series [4] (water, 48 hours, pH 7.0, read-out: solubility in water).
